pIC50: −log10 of the molar value. Where two headings read alike, the source gives them in different places.
What was measured:
[1] = system: HBeAg (surrogate marker for cccDNA) in HepDES19 cells; assay: Engineered HepDES19 primary screen assay (HBeAg ELISA); format: cell-based, HBV
Outline: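 HepDES19 cells were induced by Tet withdrawal for 8 days, then treated with half-log compound dilutions (1% DMSO final) for 5 days at 37 °C. HBeAg was measured by ELISA as the cccDNA surrogate, viability by CCK-8, and IC50 from a 4-parameter logistic fit.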

[2] = system: HBsAg in HBV-infected PHH; assay: Cryopreserved primary human hepatocytes (PHH) HBV infection assay, extracellular HBsAg (CLIA); format: cell-based
Method: This assay is used to confirm the anti-HBV effect of the compounds in HBV PHH infection assay. Cryopreserved PHH (BioreclamationIVT, Lot YJM) was thawed at 37° C. and gently transferred into pre-warmed InVitroGRO HT medium (BioreclamationIVT, Cat. S03317). The mixture was centrifuged at 70 relative centrifugal force (RCF) for 3 minutes at RT, and the supernatant was discarded. Pre-warmed InVitroGRO CP medium (BioreclamationIVT, Cat #S03316) was added to the cell pellet to gently re-suspend cells. The cells were seeded at the density of 5.8×10^4 cells per well to collagen I coated 96-well plate (Gibco, Cat. A1142803) with the InVitroGRO CP medium. All plates were incubated at 37° C. with 5% CO2 and 85% humidity.
At 20 hours after plating, the medium was changed to PHH culture medium (Dulbecco's Modified Eagle Medium (DMEM)/F12 (1:1) (Gibco, Cat. 11320-033), 10% fetal bovine semm (Gibco Cat. 10099141), 100 U/mL penicillin, 100 μg/mL streptomycin (Gibco, Cat. 151401-122), […] (Invitrogen Cat. PHG0311L), 20 ng/mL dexamethasone (Sigma, Cat. D4902) and 250 ng/mL human recombinant insulin (Gibco, Cat. 12585-014)). And the cells were incubated at 37° C. with 5% CO2 and 85% humidity for 4 hours. The medium was then changed to pre-warmed PHH culture medium containing 4% polyethylene glycol (PEG) MW8000 (Sigma, Cat. P1458-50 ML) and 1% DMSO (Sigma, Cat. D2650). 5.8×10^6 genomic equivalents of HBV were added into the medium.
At 24 hours post-infection, the cells were gently washed with PBS and refreshed with PHH culture medium supplemented with 1% DMSO, and 0.25 mg/mL Matrix gel (Corning, Cat. 356237) at 200 μL per well. All plates were immediately placed in at 37° C. CO2 incubator.
24 hours later, serial dilutions of compounds made with DMSO were further diluted with the same culture medium (PHH culture medium supplemented with 1% DMSO and 0.25 mg/mL Matrix gel as described above) before they were added to the cells to reach desired final compound concentrations and 1% DMSO concentration. The medium containing the compounds were refreshed every three days.
At 9 days post-compound treatment, extracellular HBsAg level were measured with Chemiluminescence Immuno Assay (CLIA) kit (Autobio, HBsAg Quantitative CLIA). Extracellular HBV DNA was extracted by MagNA Pure 96 system (Roche) and then determined by quantitative PCR with the following primers and probe: […]
HBsAg IC50 and HBV DNA IC50 values were derived from the dose-response curve using 4 parameter logistic curve fit method. The compounds of formula (I) have HBsAg IC50<20 μM, particularly <1 μM; and HBV DNA IC50<50 μM.

[3] = Human microsome stability assay; format: in vitro ADME; conditions: human liver microsomes, 1 μM test compound, 0.5 mg/mL microsomal protein, 37° C., pH 7.4, 0-30 minutes
Outline: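 Compound (1 μM) incubated at 37 °C with human liver microsomes (0.5 mg/mL protein) in 100 mM potassium phosphate, pH 7.4, after 10 min preincubation; started with NADPH regenerating system. Sampled at 0–30 min, quenched with cold ACN; remaining parent quantified by LC-MS/MS, with no-NADPH controls.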

[4] = Hepatitis B virus, HepDES19, 120 h, read-out: IC50 (HBeAg level, HepDES19 primary screen assay), HepDES19 cells, 5 days compound incubation, HBeAg ELISA
[5] = Hepatitis B virus, Hepatocyte, 216 h, read-out: HBsAg IC50, Cryopreserved PHH infected with HBV, 9 days post-compound treatment, extracellular HBsAg

Structure (SMILES)	pIC50 ([1]; read-out: IC50 (HBeAg level, HepDES19 primary screen assay), HepDES19 cells, 5 days compound incubation, HBeAg ELISA)	pIC50 ([2]; read-out: HBsAg IC50, Cryopreserved PHH infected with HBV, 9 days post-compound treatment, extracellular HBsAg)	pIC50 [1, 4]	pIC50 [2, 5]	Clearance of Human microsome [3]
Cc1cc(-c2cc(=O)c3cccc(Cl)c3o2)c(OC2CC(C(=O)O)C2)cc1Cl (stereo in doubt) [Example B012-B, Trans-3-[5-chloro-2-(8-chloro-4-oxo-chromen-2-yl)-4-methyl-phenoxy]cyclobutanecarboxylic acid]	5.57	5.59	–	–	–
COC(=O)CCOc1cc(C(F)(F)F)ccc1-c1cc(=O)c2cccc(Cl)c2o1 [Example A002, methyl 3-[2-(8-chloro-4-oxo-chromen-2-yl)-5-(trifluoromethyl)phenoxy]propanoate]	–	–	6.10	5.74	–
Cc1cc(-c2cc(=O)c3cccc(Cl)c3o2)c(OCCC(=O)O)cc1Br [Example A006, 3-[5-bromo-2-(8-chloro-4-oxo-chromen-2-yl)-4-methyl-phenoxy]propanoic acid]	–	–	5.91	5.97	–
O=C(O)CCOc1cc2c(cc1-c1cc(=O)c3cccc(Cl)c3o1)OCO2 [Example A011, 3-[[6-(8-chloro-4-oxo-chromen-2-yl)-1,3-benzodioxol-5-yl]oxy]propanoic acid]	–	–	6.38	6.03	–
COc1cc(OCCC(=O)O)c(-c2cc(=O)c3cccc(Cl)c3o2)cc1C [Example A012, 3-[2-(8-chloro-4-oxo-chromen-2-yl)-5-methoxy-4-methyl-phenoxy]propanoic acid]	–	–	6.19	5.68	–
Cc1ccc(-c2cc(=O)c3cccc(Cl)c3o2)c(OCCC(=O)O)c1 [Example A013, 3-[2-(8-chloro-4-oxo-chromen-2-yl)-5-methyl-phenoxy]propanoic]	–	–	6.18	5.72	–
O=C(O)CCOc1cc(OC(F)(F)F)c(Br)cc1-c1cc(=O)c2cccc(Cl)c2o1 [Example A016, 3-[4-bromo-2-(8-chloro-4-oxo-chromen-2-yl)-5-(trifluoromethoxy)phenoxy]propanoic acid]	–	–	5.99	6.08	–
O=C(O)CCOc1cc(Br)cc(F)c1-c1cc(=O)c2cccc(Cl)c2o1 [Example A020, 3-[5-bromo-2-(8-chloro-4-oxo-chromen-2-yl)-3-fluoro-phenoxy]propanoic acid]	–	–	6.11	5.12	–
O=C(O)CCCOc1cc(Br)ccc1-c1cc(=O)c2cccc(Cl)c2o1 [Example A055, 4-[5-bromo-2-(8-chloro-4-oxo-chromen-2-yl)phenoxy]butanoic acid]	–	–	7.02	5.62	–
Cc1cc(-c2cc(=O)c3cccc(Cl)c3o2)c(OCC(=O)N2C[C@@H](O)[C@@H](O)C2)cc1Br [Example A090, 2-[4-bromo-5-methyl-2-[2-oxo-2-[rac-(3S,4R)-3,4-dihydroxypyrrolidin-1-yl]ethoxy]phenyl]-8-chloro-chromen-4-one]	–	–	5.32	5.03	–
O=C(COc1cc(C(F)(F)F)ccc1-c1cc(=O)c2cccc(Cl)c2o1)N1CCOCC1 [Example A092, 8-chloro-2-[2-(2-morpholino-2-oxo-ethoxy)-4-(trifluoromethyl)phenyl]chromen-4-one]	–	–	5.95	5.55	–
O=C(O)C1CC(Oc2cc(Br)ccc2-c2cc(=O)c3cccc(Cl)c3o2)C1 (stereo not shown) [Example B001, 3-[5-bromo-2-(8-chloro-4-oxo-chromen-2-yl)phenoxy]cyclobutanecarboxylic acid]	–	–	6.67	5.99	–
Cc1cc(-c2cc(=O)c3cccc(Cl)c3o2)c(O[C@H]2C[C@@H](C(=O)O)C2)cc1Br [Example B013-A, Cis-3-[5-bromo-2-(8-chloro-4-oxo-chromen-2-yl)-4-methyl-phenoxy]cyclobutanecarboxylic acid]	–	–	6.04	5.14	–
O=C(O)C1CCC(OCCCOc2cc(Br)ccc2-c2cc(=O)c3cccc(Cl)c3o2)C1 (stereo not shown) [Example C105, 3-[3-[5-bromo-2-(8-chloro-4-oxo-chromen-2-yl)phenoxy]propoxy]cyclopentanecarboxylic acid]	–	–	5.76	–	6.15 mL/min/kg
CC(C)(COc1cc(Br)ccc1-c1cc(=O)c2cccc(Cl)c2o1)CO[C@H]1C[C@@H](C(=O)O)C1 [Example C110-A, cis-3-[3-[5-bromo-2-(8-chloro-4-oxo-chromen-2-yl)phenoxy]-2,2-dimethyl-propoxy]cyclobutanecarboxylic acid]	–	–	6.36	–	6.15 mL/min/kg
CC(C)(COc1cc(Br)ccc1-c1cc(=O)c2cccc(Cl)c2o1)CO[C@H]1C[C@H](C(=O)O)C1 [Example C110-B, trans-3-[3-[5-bromo-2-(8-chloro-4-oxo-chromen-2-yl)phenoxy]-2,2-dimethyl-propoxy]cyclobutanecarboxylic acid]	–	–	5.43	–	6.15 mL/min/kg
O=C(O)[C@@H]1CCN(C(=O)COCCOc2cc(Br)ccc2-c2cc(=O)c3cccc(Cl)c3o2)C1 [Example C111, (3R)-1-[2-[2-[5-bromo-2-(8-chloro-4-oxo-chromen-2-yl)phenoxy]ethoxy]acetyl]pyrrolidine-3-carboxylic acid]	–	–	5.90	–	6.15 mL/min/kg
O=C(O)[C@H]1CCN(C(=O)COCCOc2cc(Br)ccc2-c2cc(=O)c3cccc(Cl)c3o2)C1 [Example C112, (3S)-1-[2-[2-[5-bromo-2-(8-chloro-4-oxo-chromen-2-yl)phenoxy]ethoxy]acetyl]pyrrolidine-3-carboxylic acid]	–	–	4.94	–	6.15 mL/min/kg
O=C(O)COCC(O)COc1cc(C(F)(F)F)ccc1-c1cc(=O)c2cccc(Cl)c2o1 (stereo not shown) [Example C115, 2-[3-[2-(8-chloro-4-oxo-chromen-2-yl)-5-(trifluoromethyl)phenoxy]-2-hydroxy-propoxy]acetic acid]	–	–	4.72	–	6.15 mL/min/kg
O=C(COCCOc1cc(Br)ccc1-c1cc(=O)c2cccc(Cl)c2o1)NS(=O)(=O)C1CC1 [Example C116, 2-[2-[5-bromo-2-(8-chloro-4-oxo-chromen-2-yl)phenoxy]ethoxy]-N-cyclopropylsulfonyl-acetamide]	–	–	5.04	–	6.15 mL/min/kg
O=C(COCCCOc1cc(C(F)(F)F)ccc1-c1cc(=O)c2cccc(Cl)c2o1)NS(=O)(=O)C1CC1 [Example C117, 2-[3-[2-(8-chloro-4-oxo-chromen-2-yl)-5-(trifluoromethyl)phenoxy]propoxy]-N-cyclopropylsulfonyl-acetamide]	–	–	5.60	–	7.45 mL/min/kg
O=C(COCCOc1cc(C(F)(F)F)ccc1-c1cc(=O)c2cccc(Cl)c2o1)NS(=O)(=O)C1CC1 [Example C118, 2-[2-[2-(8-chloro-4-oxo-chromen-2-yl)-5-(trifluoromethyl)phenoxy]ethoxy]-N-cyclopropylsulfonyl-acetamide]	–	–	4.83	–	6.15 mL/min/kg
CS(=O)(=O)NC(=O)[C@H]1C[C@@H](OCCOc2cc(C(F)(F)F)ccc2-c2cc(=O)c3cccc(Cl)c3o2)C1 [Example C121, Cis-3-[2-[2-(8-chloro-4-oxo-chromen-2-yl)-5-(trifluoromethyl)phenoxy]ethoxy]-N-methylsulfonyl-cyclobutanecarboxamide]	–	–	5.23	–	8.68 mL/min/kg

From patent publication US11708344B2, “Flavone derivatives for the treatment and prophylaxis of hepatitis B virus disease” (Hoffmann-La Roche Inc., priority 2018, dated 2023)
